Test results published in patent US11466028B2, “Fused 1,4-oxazepines as BET protein degraders” (THE REGENTS OF THE UNIVERSITY OF MICHIGAN, priority 2016, dated 2022).

Experiments:
Format in all cases: cell-based
MDA-MB-453 = assay: WST-8 cell growth inhibition assay, MDA-MB-453; conditions: Homo sapiens, WST-8, Table 6
Procedure: (§1) Cpd. Nos. 7 and 18 were tested in various triple-negative breast cancer cell lines using the WST-8 cell growth assay.

MonoMac6 = assay: CellTiter-Glo cell viability, MonoMac6 leukemia cell line; conditions: Homo sapiens, MONO-MAC-6, Table 5
Procedure: (§2) Cell growth inhibitory activity of representative Compounds of the Disclosure was determined using the CellTiter-Glo® Luminescent Cell Viability Assay. Cells were seeded in 384-well white opaque cell culture plates at a density of 2,000 cells/well with serially diluted compounds and incubated at 37° C. in an atmosphere of 95% air and 5% CO2 for 4 days. Cell viability was determined using the CellTiter-Glo® Luminescent Cell Viability Assay Kit (Promega, Madison, Wis.) according to the manufacture's instruction. Briefly, a volume of CellTiter-Glo® Reagent equal to the volume of cell culture medium was added to each well, and then the plates were incubated at room temperature for 10-20 minutes. The luminescent signal was measured using a Tecan Infinite M1000 multimode microplate reader (Tecan, Morrisville, N.C.). The half maximal inhibitory concentration (IC50) was calculated using the GraphPad Prism 5 software (GraphPad Software, La Jolla, Calif.).
(§3) Cpd. Nos. 18 and 19 were tested in various leukemia cell lines using the CellTiter-Glo® Luminescent Cell Viability Assay as described in Example 35.

MDA-MB-231 = assay: WST-8 cell growth inhibition assay, MDA-MB-231; conditions: Homo sapiens, WST-8, Table 6
Procedure: as §1

HL60 = assay: CellTiter-Glo cell viability, HL60 leukemia cell line; conditions: Homo sapiens, HL-60, Table 5
Procedure: as §2, §3

HBL100 = assay: WST-8 cell growth inhibition assay, HBL100; conditions: Homo sapiens, HBL-100; WST-8, Table 6
Procedure: as §1

MDA-MB-468 = assay: WST-8 cell growth inhibition assay, MDA-MB-468; conditions: Homo sapiens, WST-8, Table 6
Procedure: as §1

BRD4 [1] = target: T1, BRD4 (Homo sapiens, UniProt O60885); assay: Western blot, degradation of BRD4 in MOLM-13 cells; conditions: 3 h, as compared to Compound A, FIG. 2
T1 construct: Collected cells were lysed in lysis buffer; endogenous in cells; host or cells: RS4;11 and MOLM-13 leukemia cells
Procedure: (§4) Cells were treated with compounds at the indicated concentrations for 2.5 h and 3 h, respectively, for RS4;11 (see FIG. 1) and MOLM-13 (see FIG. 2) cells. Compound A is ((S)-3-benzyl-6,9-dimethyl-2-((1-methyl-1H-pyrazol-4-yl)ethynyl)-4H,6H-thieno[2,3-e][1,2,4]triazolo[3,4-c][1,4]oxazepine). See Cpd. No. 85 of U.S. Appl. No. 62/295,271.
(§5) Collected cells were lysed in lysis buffer [1% CHAPS, 150 mM NaCl, 20 mM Tris-HCl, 1 mM. EDTA, 1 mM EGTA, and COMPLETE proteinase inhibitor (Roche)] for 30 minutes on ice. Protein concentrations were determined using the Bio-Rad Protein Assay Dye reagent. Whole tumor lysates (20 μg) were separated on a 4-20% Novex gels (Invitrogen). The separated proteins were transferred to a PVDF membrane (BIO-RAD) and the PVDF membrane was then blotted with 5% Blotting-Grade Blocker (BIO-RAD) for 1 hour at room temperature. The primary antibodies used were BRD4 rabbit polyclonal antibody [Bethyl Laboratories, Inc, cat #A301] and BRD2 antibody.
(§6) The BIO-RAD Clarity Western ECL Substrates (BIO-RAD) and HyBlot CL film (Denville) were used for signal development and detection using a SRX-101A tabletop processor (Konica Minolta).

MDA-MB-157 = assay: WST-8 cell growth inhibition assay, MDA-MB-157; conditions: Homo sapiens, WST-8, Table 6
Procedure: as §1

BRD4 [2] = target: T1, BRD4; assay: Western blot, degradation of BRD4 in RS4;11 cells; conditions: 2.5 h, as compared to Compound A, FIG. 1
Procedure: as §4, §5, §6

MDA-MB-474 = assay: WST-8 cell growth inhibition assay, MDA-MB-474; conditions: WST-8, Table 6
Procedure: as §1

MV4; 11 = assay: CellTiter-Glo cell viability, MV4;11 leukemia cell line; conditions: Homo sapiens, Table 5
Procedure: as §2, §3

For `Cc1nnc2n1-c1sc(C#Cc3cnn(CCCC#Cc4cccc5c4CN(C4CCC(=O)NC4=O)C5=O)c3)c(Cc3ccccc3)c1CO[C@H]2C` (stereo partly drawn) [Cpd. No. 18, 3-(4-(5-(4-(((S)-3-benzyl-6,9-dimethyl-4H,6H-thieno[2,3-e][1,2,4]triazolo[3,4-c][1,4]oxazepin-2-yl)ethynyl)-1H-pyrazol-1-yl)pent-1-yn-1-yl)-1-oxoisoindolin-2-yl) piperidine-2,6-dione], the IC50 (MDA-MB-453) was 0.25 ± 0.04 nM, the IC50 (MonoMac6) was 0.014 ± 0.004 nM and the IC50 (MDA-MB-231) was 0.76 ± 0.08 nM. It also gave an IC50 (HL60) of 0.003 ± 0.001 nM, an IC50 (HBL100) of 0.84 ± 0.14 nM and an IC50 (MDA-MB-468) of 0.78 ± 0.06 nM. For the same compound, the “degradation of BRD4 protein (Western blot)” value (BRD4 [1]) was “induce degradation”, the IC50 (MDA-MB-157) was 0.06 ± 0.01 nM and the “degradation of BRD4 protein (Western blot)” value (BRD4 [2]) was “induce degradation”. The IC50 (MDA-MB-474) was 0.31 ± 0.01 nM and the IC50 (MV4; 11) was 0.06 ± 0.006 nM.
